This passage reports Efficacy and logP results from patent publication US9357778B2, “N-acyl-2-(cyclo)alkypyrrolidines and piperidines useful as fungicides” (BAYER CROPSCIENCE AG, priority 2012, dated 2016).

Each structure is given as a SMILES string.

One data set deals with Sphaerotheca fuliginea. The data set can be described thus: In vivo preventive test on Sphaerotheca fuliginea (cucumber). The following applies: 500 ppm of active ingredient, evaluated 7 days after inoculation. Here is the method: In Vivo Preventive Test on Sphaerotheca Fulicinea (Cucumber) • Solvent: 49 parts by weight of N,N-dimethylformamide • Emulsifier: 1 part by weight of alkylarylpolyglycolether To produce a suitable preparation of active compound, 1 part by weight of active compound is mixed with the stated amounts of solvent and emulsifier, and the concentrate is diluted with water to the desired concentration. To test for preventive activity, young plants are sprayed with the preparation of active compound at the stated rate of application. One day after this treatment, the plants are inoculated with an aqueous spore suspension of Sphaerotheca fuliginea. Then the plants are placed in a greenhouse at approximately 23° C. and a relative atmospheric humidity of approximately 70%. The test is evaluated 7 days after the inoculation. 0% means an efficacy which corresponds to that of the untreated control, while an efficacy of 100% means that no disease is observed.

Data set [1] in a line: log P by HPLC on reversed-phase column (C 18), EEC Directive 79/831 Annex V.A8. Format: physicochemical. The following applies: 40° C., 0.1% aqueous formic acid and acetonitrile. As to the method:
In table 1, the log P values were determined in accordance with EEC Directive 79/831 Annex V.A8 by HPLC (High Performance Liquid Chromatography) on a reversed-phase column (C 18), using the method described below: Temperature: 40° C.; Mobile phases: 0.1% aqueous formic acid and acetonitrile; linear gradient from 10% acetonitrile to 90% acetonitrile. Calibration was carried out using unbranched alkan-2-ones (comprising 3 to 16 carbon atoms) with known log P values (determination of the log P values by the retention times using linear interpolation between two successive alkanones). lambda-max-values were determined using UV-spectra from 200 nm to 400 nm and the peak values of the chromatographic signals.

The test system of a further data set is Pyrenophora teres. Description: In vivo preventive test on Pyrenophora teres (barley). The following applies: 500 ppm of active ingredient, evaluated 7-9 days after inoculation. Here is the method: In Vivo Preventive Test on Pyrenophora teres (Barley) • Solvent: 49 parts by weight of N,N-dimethylformamide • Emulsifier: 1 part by weight of alkylaryl polyglycol ether To produce a suitable preparation of active compound, 1 part by weight of active compound is mixed with the stated amounts of solvent and emulsifier, and the concentrate is diluted with water to the desired concentration. To test for preventive activity, young plants are sprayed with the preparation of active compound at the stated rate of application. One day after this treatment, the plants are inoculated with an aqueous spore suspension of Pyrenophora teres. The plants remain for 48 hours in an incubation cabinet at 22° C. and a relative atmospheric humidity of 100%. Then the plants are placed in a greenhouse at a temperature of approximately 20° C. and a relative atmospheric humidity of approximately 80%. The test is evaluated 7-9 days after the inoculation. 0% means an efficacy which corresponds to that of the untreated control while an efficacy of 100% means that no disease is observed.

The test system of the next data set is Alternaria solani. The data set can be described thus: In vivo preventive test on Alternaria solani (tomato). The following applies: 500 ppm of active ingredient, evaluated 7 days after inoculation. Here is the method: In Vivo Preventive Test on Alternaria solani (Tomato) • Solvent: 49 parts by weight of N,N-dimethylformamide • Emulsifier: 1 part by weight of alkylarylpolyglycolether To produce a suitable preparation of active compound, 1 part by weight of active compound is mixed with the stated amounts of solvent and emulsifier, and the concentrate is diluted with water to the desired concentration. To test for preventive activity, young plants are sprayed with the preparation of active compound at the stated rate of application. One day after this treatment, the plants are inoculated with an aqueous spore suspension of Alternaria solani. The plants remain for one day in an incubation cabinet at approximately 22° C. and a relative atmospheric humidity of 100%. Then the plants are placed in an incubation cabinet at approximately 20° C. and a relative atmospheric humidity of 96%. The test is evaluated 7 days after the inoculation. 0% means an efficacy which corresponds to that of the untreated control while an efficacy of 100% means that no disease is observed.

For another data set, the system named is Leptosphaeria nodorum. Description: In vivo preventive test on Leptosphaeria nodorum (wheat). The following applies: 500 ppm of active ingredient, evaluated 8 days after inoculation. As to the method: In Vivo Preventive Test on Leptosphaeria nodorum (Wheat) • Solvent: 49 parts by weight of N,N-dimethylacetamide • Emulsifier: 1 part by weight of alkylaryl polyglycol ether To produce a suitable preparation of active compound, 1 part by weight of active compound or active compound combination is mixed with the stated amounts of solvent and emulsifier, and the concentrate is diluted with water to the desired concentration. To test for preventive activity, young plants are sprayed with the preparation of active compound or active compound combination at the stated rate of application. After the spray coating has been dried, the plants are sprayed with a spore suspension of Leptosphaeria nodorum. The plants remain for 48 hours in an incubation cabinet at approximately 20° C. and a relative atmospheric humidity of approximately 100%. The plants are placed in the greenhouse at a temperature of approximately 22° C. and a relative atmospheric humidity of approximately 80%. The test is evaluated 8 days after the inoculation. 0% means an efficacy which corresponds to that of the untreated control, while an efficacy of 100% means that no disease is observed.

With `Cn1cc(C(=O)N2CCCC2C2CCCCC2)c(C(F)F)n1` (stereo not drawn) [Example 9], the values for the Efficacy in the data set with Sphaerotheca fuliginea, with Pyrenophora teres and with Alternaria solani were 95%, 100% and 89%, respectively. Further, the lipophilicity (logP) in data set [1] worked out at 2.88.

With `Cn1nc(C(F)F)c(C(=O)N2CCCC2C2CCCCC2)c1Cl` (stereo not drawn) [Example 10], the Efficacy with Sphaerotheca fuliginea is given as 90%; in the data set on Pyrenophora teres it was 100%; in the data set with Alternaria solani, 94%. Moreover, the logP in data set [1] is reported as 3.48.

`Cn1nc(C(F)F)c(C(=O)N2CCCC2C23CC4CC(CC(C4)C2)C3)c1F` (stereo not drawn) [Example 14]: the Efficacy in the data set on Sphaerotheca fuliginea was 70%; in the data set on Pyrenophora teres, 100%; in the data set on Alternaria solani it was 94%. This compound showed a log partition coefficient (logP) in data set [1] of 4.44.

Turning to `Cn1cc(C(=O)N2CCCC2CC2CCCCC2)c(C(F)F)n1` (stereo not drawn) [Example 15], the values for the Efficacy in the data set on Sphaerotheca fuliginea, in the data set on Pyrenophora teres and in the data set with Alternaria solani were 85%, 100% and 89%, respectively. In addition, in data set [1], the log partition coefficient (logP) is listed as 3.33.

For the compound `Cn1nc(C(F)F)c(C(=O)N2CCCC2CC2CCCCC2)c1Cl` (stereo not drawn) [Example 16], the figures for the Efficacy in the data set on Leptosphaeria nodorum, in the data set with Pyrenophora teres and in the data set on Alternaria solani were 70%, 100% and 94%, respectively. Also, the logP in data set [1] was found to be 3.89.

Regarding `Cn1nc(C(F)F)c(C(=O)N2CCCCC2C2CCCCC2)c1F` (stereo not drawn) [Example 24], the figures for the Efficacy in the data set on Sphaerotheca fuliginea, in the data set with Pyrenophora teres and with Alternaria solani were 95%, 100% and 94%, respectively. For the same compound, the lipophilicity (logP) in data set [1] is listed as 3.60.

In turn, `CCCOCCC1CCCCN1C(=O)c1c(C(F)F)nn(C)c1F` (stereo not drawn) [Example 29] displayed a logP in data set [1] of 2.73. The values for the Efficacy in the data set on Pyrenophora teres and with Alternaria solani were 100% and 94%, respectively.

For `CCCCOCCC1CCCCN1C(=O)c1cn(C)nc1C(F)F` (stereo not drawn) [Example 30], in data set [1], the logP is 2.80. Besides, the values for the Efficacy with Pyrenophora teres and in the data set with Alternaria solani were 95% and 89%, respectively.

Regarding `CCCCOCCC1CCCCN1C(=O)c1c(C(F)F)nn(C)c1Cl` (stereo not drawn) [Example 31], in data set [1], the logP was 3.35. In addition, the Efficacy in the data set with Pyrenophora teres is reported as 90%; in the data set on Alternaria solani it was 89%.

`CCCCOCCC1CCCCN1C(=O)c1c(C(F)F)nn(C)c1F` (stereo not drawn) [Example 32] displayed a log partition coefficient (logP) in data set [1] of 3.19. Also, the results for the Efficacy with Pyrenophora teres and in the data set on Alternaria solani were 100% and 94%, respectively.

In turn, `Cn1nc(C(F)F)c(C(=O)N2CCCCC2CCOCC2CC2)c1F` (stereo not drawn) [Example 35] yielded a log partition coefficient (logP) in data set [1] of 2.66. For the same compound, the Efficacy with Pyrenophora teres and with Alternaria solani was 94% throughout.

Consider `Cn1nc(C(F)F)c(C(=O)N2CCCCC2CCOCC2CCC2)c1Cl` (stereo not drawn) [Example 36], for which, in data set [1], the lipophilicity (logP) came out at 3.51. Further, the Efficacy worked out at 78% in the data set with Pyrenophora teres and 88% in the data set on Alternaria solani.

`Cn1nc(C(F)F)c(C(=O)N2CCCCC2CCOCC2CCC2)c1F` (stereo not drawn) [Example 37] yielded a log partition coefficient (logP) in data set [1] of 3.33. Moreover, the Efficacy in the data set with Pyrenophora teres and in the data set with Alternaria solani was 94% throughout.

Compound `COCCCOCCC1CCCCN1C(=O)c1c(C(F)F)nn(C)c1F` (stereo not drawn) [Example 40] displayed a logP in data set [1] of 2.25. In addition, the Efficacy in the data set with Pyrenophora teres came out at 95%; with Alternaria solani it was 94%.

On to `Cn1cc(C(=O)N2CCCCC2CCOCCC2CCCCC2)c(C(F)F)n1` (stereo not drawn) [Example 42], for which the logP in data set [1] came to 4.23. For the same compound, the Efficacy in the data set with Pyrenophora teres is reported as 95%; with Alternaria solani, 78%.

Regarding `Cn1nc(C(F)F)c(C(=O)N2CCCCC2CCOCCC2CCCCC2)c1F` (stereo not drawn) [Example 44], the logP in data set [1] was 4.67. Also, the Efficacy in the data set with Pyrenophora teres is 100%; in the data set on Alternaria solani it was 89%.

For `COCCCC1CCCCN1C(=O)c1c(C(F)F)nn(C)c1F` (stereo not drawn) [Example 47], the log partition coefficient (logP) in data set [1] is 2.18. The Efficacy with Pyrenophora teres worked out at 100%; with Alternaria solani, 89%.

Take `Cn1nc(C(F)F)c(C(=O)N2CCCC2CC2CC3CCC2C3)c1Cl` (stereo not drawn) [Example 50]: the logP in data set [1] is on record as 3.99. The Efficacy came out at 100% in the data set on Pyrenophora teres and 88% with Alternaria solani.

Usually logP stands for the decadic logarithm of the partition coefficient of the neutral form, usually between octanol and water. A higher logP goes with higher lipophilicity.
